25 molecules from US20230348475A1, “IMIDAZOPYRIDAZINE AND IMIDAZOPYRAZINE COMPOUNDS AS INHIBITORS OF CDK7” (THE TRANSLATIONAL GENOMICS RESEARCH INSTITUTE, priority 2020, published 2023) can be followed below.

Test [1] has as its system A2780 ovarian cancer cell line. The experiment in a line: Cell viability assay (Cell Titer Glo), A2780. The format is cell-based. The conditions noted are these: Homo sapiens, A2780, Table 7a, 72 hour incubation. On the procedure:
(§1) Materials: • Cell Lines (Treated according to ATCC guidelines) • Cell Titer Glo (Promega Cat #G7572) • DMSO • 96-well White Tissue Culture Treated Plates (Perkin Elmer Cat #60005680)
(§2) Cells were seeded in a white 96-well tissue culture treated plate at a density of 1500 cells in 90 μL of media per well and allowed to settle overnight. A ten point serial dilution of drugs was prepared at 10×concentration in media with the final assay concentrations starting at 30 μM, 10 μM, 3 μM, 1 μM, 0.3 μM . . . 0 μM. A dilution of DMSO was included as a control. The assay was set up by adding 10 μL of the corresponding drug to each well in duplicate, followed by a 72 hour incubation at 37° C., 5% CO2. Cell viability was quantified by adding 90 μL of Cell Titer Glo to each well and incubating at room temperature for 10 minutes. The reaction was quantified by measuring luminescence using the Envision Plate Reader. Data was analyzed using Graphpad Prism 7 software.
(ATP-based viability assays read luminescence as a measure of living cells.)

Test [2] has as its system HPAC pancreatic cancer cell line. Nature of the test: Cell viability assay (Cell Titer Glo), HPAC. The format is cell-based. The conditions noted are these: Homo sapiens, HPAC; Table 7a; pancreatic cancer cell line, 72 hour incubation. On the procedure: as §1, §2
Test [3] concerns Kasumi1 leukemia cancer cell line. Nature of the test: Cell viability assay (Cell Titer Glo), Kasumi1. It counts as cell-based. Particulars: Homo sapiens, Kasumi 1, Table 7a, 72 hour incubation. On the procedure: as §1, §2
The next test deals with CDK7/CycH/MAT1 (Homo sapiens, UniProt P50613). Nature of the test: Kinase Glo (ADP-Glo) biochemical assay, CDK7. The conditions noted are these: CDK7/CycH/MAT1 40 ng, ATP 1 μM, 60 minutes at RT, luminescence. On the procedure:
Materials: • Assay Buffer: 50 mM HEPES, 3 mM MgCl2, 3 mM MnCl2, 1 mM DTT, 3 μM Na3VO4, pH 7.5 • Substrate RB • CTF Peptide (ProQinase #: 0040-0000-6) • Enzymes • CDK7/CycH/MAT1 (ProQinase #: 0366-0360-4) • ADP-Glo™ Assay (Promega #: V9101) • ATP: 10 mM • ADP-Glo™ Reagent • Kinase Detection Reagent • 384-well white assay plates
A ten point serial dilution of compound was prepared at 5X concentration in assay buffer with the final assay concentrations starting at 30 μM, 10 μM, 3 μM, 1 μM . . . 0 μM. Enzyme, substrate, and ATP were used at 40 ng, 200 ng (or 400 ng)* and 1 μM, respectively. The assay plate was set up by mixing the components in a total reaction volume of 10 μL per well. The plate was centrifuged gently for 10 seconds and incubated at room temperature (RT) for 60 minutes in the dark. The ADP-Glo Reagent and kinase detection reagent were added and incubated as recommended. The reaction was quantified by measuring luminescence on the Perkin Elmer Envision plate reader.
A general note: Kinase-Glo measures the ATP left after a reaction by luminescence.

In test [4] the test system is MiaPaCa2 pancreatic cancer cell line. Nature of the test: Cell viability assay (Cell Titer Glo), MiaPaCa2. The conditions noted are these: Homo sapiens, MIA PaCa-2; Table 7a; pancreatic cancer cell line, 72 hour incubation. It counts as cell-based. On the procedure:
as §1, §2

Test [5] concerns A673 Ewingsarcoma cell line. The experiment in a line: Cell viability assay (Cell Titer Glo), A673. The conditions noted are these: Homo sapiens, A673, Table 7a, 72 hour incubation. The format is cell-based. Here is the method: as §1, §2

The structures appear in SMILES notation. Where a name gives a salt, the structure may show the parent alone.

By IC50 is commonly meant the concentration that inhibits the measured activity by half. A low value points to greater potency in that assay.

CDK7/CycH/MAT1, sequence (P50613 whole entry): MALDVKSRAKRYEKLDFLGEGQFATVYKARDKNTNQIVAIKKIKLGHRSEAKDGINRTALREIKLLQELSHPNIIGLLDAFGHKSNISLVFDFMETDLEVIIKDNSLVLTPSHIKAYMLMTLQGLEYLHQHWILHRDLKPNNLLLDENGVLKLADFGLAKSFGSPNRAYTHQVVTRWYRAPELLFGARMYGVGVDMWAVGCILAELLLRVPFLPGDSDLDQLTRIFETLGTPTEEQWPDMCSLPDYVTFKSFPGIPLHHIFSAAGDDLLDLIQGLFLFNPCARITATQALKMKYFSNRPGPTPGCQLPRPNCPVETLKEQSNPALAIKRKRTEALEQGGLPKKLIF
CDK7/CycH/MAT1, sequence (P51946 whole entry partner): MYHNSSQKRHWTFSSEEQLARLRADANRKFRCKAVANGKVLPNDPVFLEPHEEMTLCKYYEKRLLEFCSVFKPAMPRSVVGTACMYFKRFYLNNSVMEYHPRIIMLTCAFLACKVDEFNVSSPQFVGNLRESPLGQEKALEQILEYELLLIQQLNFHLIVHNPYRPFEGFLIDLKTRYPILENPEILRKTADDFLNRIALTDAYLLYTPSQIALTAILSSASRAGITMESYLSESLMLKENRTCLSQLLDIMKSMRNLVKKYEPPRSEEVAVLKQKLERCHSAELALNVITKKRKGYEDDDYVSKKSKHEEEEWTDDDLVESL
CDK7/CycH/MAT1, sequence (P51948 whole entry partner): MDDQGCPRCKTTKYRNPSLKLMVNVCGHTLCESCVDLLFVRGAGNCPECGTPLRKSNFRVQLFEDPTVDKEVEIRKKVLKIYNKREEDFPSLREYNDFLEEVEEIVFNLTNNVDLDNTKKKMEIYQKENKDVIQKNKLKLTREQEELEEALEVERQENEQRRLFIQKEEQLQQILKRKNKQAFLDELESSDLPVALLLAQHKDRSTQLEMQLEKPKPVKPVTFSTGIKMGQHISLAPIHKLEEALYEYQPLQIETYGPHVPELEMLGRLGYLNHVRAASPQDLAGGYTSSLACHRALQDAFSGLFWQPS

As for `CC(C)c1cnc2c(NCc3ccccc3OC(F)(F)F)cc(OC3CCNCC3F)nn12` (stereo not shown) [Compound 70, 6-((3-fluoropiperidin-4-yl)oxy)-3-isopropyl-N-(2-(trifluoromethoxy)benzyl)imidazo[1,2-b]pyridazin-8-amine hydrochloride], the IC50 in test [1] was 1000 to 5000 nM; in test [2] it was 1000 to 5000 nM; in test [3], 1000 to 5000 nM; at CDK7/CycH/MAT1, < 100 nM; in test [4], 1000 to 5000 nM.

With `CC(C)c1cnc2c(NCc3ccccc3-n3cccn3)cc(SC3CCCNC3)nn12` (stereo not shown) [Compound 63, N-(2-(1H-pyrazol-1-yl)benzyl)-3-isopropyl-6-(piperidin-3-ylthio)imidazo[1,2-b]pyridazin-8-amine hydrochloride], the IC50 in test [2] is < 1000 nM; in test [5], 1000 to 5000 nM; in test [3], < 1000 nM; against CDK7/CycH/MAT1, < 100 nM; in test [4], < 1000 nM.

For `CC(C)c1cnc2c(NCc3ccc(F)cc3F)cc(SC3CCNCC3)nn12` [Compound 56, N-(2,4-difluorobenzyl)-3-isopropyl-6-(piperidin-4-ylthio)imidazo[1,2-b]pyridazin-8-amine hydrochloride], the IC50 is < 1000 nM in test [1]; < 1000 nM in test [2]; 1000 to 5000 nM in test [3]; < 100 nM on CDK7/CycH/MAT1; < 1000 nM in test [4].

Turning to `CC(C)c1cnc2c(NCc3ccccc3C(F)(F)F)cc(SC3CCNCC3F)nn12` (stereo not shown) [Compound 77, 6-((3-fluoropiperidin-4-yl)thio)-3-isopropyl-N-(2-(trifluoromethyl)benzyl)imidazo[1,2-b]pyridazin-8-amine hydrochloride], the half-maximal inhibitory concentration (IC50) in test [1] is 1000 to 5000 nM; in test [2], 1000 to 5000 nM; in test [3], 1000 to 5000 nM; against CDK7/CycH/MAT1, < 100 nM; in test [4], 1000 to 5000 nM.

On to `COc1ccccc1CNc1cc(SC2CCNCC2F)nn2c(C(C)C)cnc12` (stereo not shown) [Compound 73, 6-((3-fluoropiperidin-4-yl)thio)-3-isopropyl-N-(2-methoxybenzyl)imidazo[1,2-b]pyridazin-8-amine hydrochloride], for which the IC50 in test [1] is 1000 to 5000 nM; in test [2], 1000 to 5000 nM; in test [3], 1000 to 5000 nM; against CDK7/CycH/MAT1, < 100 nM; in test [4], 1000 to 5000 nM.

As to `Fc1cccc(Nc2cc(O[C@@H]3CCNC3)nn3c(C4CC4)cnc23)c1` [Compound 6, (R)-3-cyclopropyl-N-(3-fluorophenyl)-6-(pyrrolidin-3-yloxy)imidazo[1,2-b]pyridazin-8-amine], the 50% inhibitory concentration (IC50) is 1000 to 5000 nM in test [1]; < 1000 nM in test [2]; 1000 to 5000 nM in test [3]; < 100 nM against CDK7/CycH/MAT1; 1000 to 5000 nM in test [4].

`CC(C)c1cnc2c(NCc3ccccc3OC(F)(F)F)cc(OC[C@H]3CNCCO3)nn12` [Compound 47, (R)-3-isopropyl-6-(morpholin-2-ylmethoxy)-N-(2-(trifluoromethoxy)benzyl)imidazo[1,2-b]pyridazin-8-amine hydrochloride]: on CDK7/CycH/MAT1, the 50% inhibitory concentration (IC50) lay within 100 to 1000 nM.

Regarding `CC(C)c1cnc2c(N[C@@H](C)c3ccccc3)cc(NC3CCNCC3)nn12` [Compound 29, (S)-3-isopropyl-N8-(1-phenylethyl)-N6-(piperidin-4-yl)imidazo[1,2-b]pyridazine-6,8-diamine hydrochloride], the IC50 against CDK7/CycH/MAT1 was 100 to 1000 nM.

Consider `CC(C)c1cnc2c(NCc3ccccc3)cc(NC[C@H]3CCNC[C@@H]3O)nn12` [Compound I-3], for which the IC50 against CDK7/CycH/MAT1 was < 100 nM.

For `COc1cc(F)ccc1CNc1cc(SC2CCNCC2)nn2c(C(C)C)cnc12` [Compound 72, N-(4-fluoro-2-methoxybenzyl)-3-isopropyl-6-(piperidin-4-ylthio)imidazo[1,2-b]pyridazin-8-amine hydrochloride], on CDK7/CycH/MAT1, the IC50 was < 100 nM.

In the case of `c1ccc(CNc2cc(O[C@@H]3CCCNC3)nn3c(C4CC4)cnc23)cc1` [Compound 13, (R)—N-benzyl-3-cyclopropyl-6-(piperidin-3-yloxy)imidazo[1,2-b]pyridazin-8-amine], at CDK7/CycH/MAT1, the IC50 fell in the range of 100 to 1000 nM.

In the case of `CC(C)c1cnc2c(Nc3c(F)cccc3F)cc(SC3CCCNC3)nn12` (stereo not shown) [Compound 59, N-(2,6-difluorophenyl)-3-isopropyl-6-(piperidin-3-ylthio)imidazo[1,2-b]pyridazin-8-amine hydrochloride], the 50% inhibitory concentration (IC50) on CDK7/CycH/MAT1 was < 100 nM.

`CC(C)c1cnc2c(Nc3cccc(OC(F)(F)F)c3)cc(SC3CCCNC3)nn12` (stereo not shown) [Compound 58, 3-isopropyl-6-(piperidin-3-ylthio)-N-(3-(trifluoromethoxy)phenyl)imidazo[1,2-b]pyridazin-8-amine hydrochloride] displayed a half-inhibitory concentration (IC50) against CDK7/CycH/MAT1 of 100 to 1000 nM.

`CC(C)c1cnc2c(Nc3ccccc3C(F)(F)F)cc(SC3CCCNC3)nn12` (stereo not shown) [Compound 61, 3-isopropyl-6-(piperidin-3-ylthio)-N-(2-(trifluoromethyl)phenyl) imidazo[1,2-b]pyridazin-8-amine hydrochloride]: on CDK7/CycH/MAT1, the IC50 was 100 to 1000 nM.

On to `c1ccc(CNc2nc(NC3CCNCC3)cn3c(C4CC4)cnc23)cc1` [Compound 31, N8-benzyl-3-cyclopropyl-N6-(piperidin-4-yl)imidazo[1,2-α]pyrazine-6,8-diamine hydrochloride], for which the half-maximal inhibitory concentration (IC50) against CDK7/CycH/MAT1 was > 1000 nM.

Consider `CC(C)c1cnc2c(Nc3cccc(C(F)(F)F)c3)cc(SC3CCCNC3)nn12` (stereo not shown) [Compound 57, 3-isopropyl-6-(piperidin-3-ylthio)-N-(3-(trifluoromethyl)phenyl)imidazo[1,2-b]pyridazin-8-amine hydrochloride], for which, on CDK7/CycH/MAT1, the half-inhibitory concentration (IC50) is 100 to 1000 nM.

Regarding `CC(C)c1cnc2c(NCc3ccc(F)cc3C(F)(F)F)cc(SC3CCCNC3)nn12` (stereo not shown) [Compound 81, N-(4-fluoro-2-(trifluoromethyl)benzyl)-3-isopropyl-6-(piperidin-3-ylthio)imidazo[1,2-b]pyridazin-8-amine hydrochloride], the IC50 against CDK7/CycH/MAT1 lay within 100 to 1000 nM.

Take `CN1CC[C@H](Oc2cc(Nc3cccc(F)c3)c3ncc(C4CC4)n3n2)C1` [Compound 5, (S)-3-cyclopropyl-N-(3-fluorophenyl)-6-((1-methylpyrrolidin-3-yl)oxy)imidazo[1,2-b]pyridazin-8-amine]: the IC50 at CDK7/CycH/MAT1 was 100 to 1000 nM.

As for `CN1CCC[C@@H](Oc2cc(NCc3ccccc3)c3ncc(C4CC4)n3n2)C1` [Compound 9, (R)—N-benzyl-3-cyclopropyl-6-((1-methylpiperidin-3-yl)oxy)imidazo[1,2-b]pyridazin-8-amine], on CDK7/CycH/MAT1, the IC50 was 100 to 1000 nM.

As to `CN1CCC[C@H](Oc2cc(Nc3cccc(F)c3)c3ncc(C4CC4)n3n2)C1` [Compound 7, (S)-3-cyclopropyl-N-(3-fluorophenyl)-6-((1-methylpiperidin-3-yl)oxy)imidazo[1,2-b]pyridazin-8-amine], at CDK7/CycH/MAT1, the concentration for half-maximal inhibition (IC50) was > 1000 nM.

Regarding `c1ccc(CNc2cc(SC3CCNCC3)nn3c(C4CC4)cnc23)cc1` [Compound 18, N-benzyl-3-cyclopropyl-6-(piperidin-4-ylthio)imidazo[1,2-b]pyridazin-8-amine hydrochloride], the IC50 against CDK7/CycH/MAT1 was < 100 nM.

With `FC(F)(F)c1cnc2c(NCc3ccccc3)cc(SC3CCNCC3)nn12` [Compound 78, N-benzyl-6-(piperidin-4-ylthio)-3-(trifluoromethyl)imidazo[1,2-b]pyridazin-8-amine hydrochloride], on CDK7/CycH/MAT1, the half-maximal inhibitory concentration (IC50) is < 100 nM.

For the molecule `CC(C)c1cnc2c(N[C@@H](C)c3ccccc3)cc(SC3CCCNC3)nn12` (stereo partly drawn) [Compound 28, 3-isopropyl-N-((S)-1-phenylethyl)-6-(piperidin-3-ylthio) imidazo [1,2-b]pyridazin-8-amine hydrochloride], at CDK7/CycH/MAT1, the IC50 is < 100 nM.

In turn, `c1ccc(CNc2cc(NCCC3CNCCO3)nn3c(C4CC4)cnc23)cc1` (stereo not shown) [Compound 19, N8-benzyl-3-cyclopropyl-N6-(2-(morpholin-2-yl)ethyl)imidazo[1,2-b]pyridazine-6,8-diamine formate] returned an IC50 against CDK7/CycH/MAT1 of 100 to 1000 nM.

In the case of `c1ccc(CNc2cc(NCC3CC4(CCNCC4)O3)nn3c(C4CC4)cnc23)cc1` (stereo not shown) [Compound 17, N6-((1-oxa-7-azaspiro[3.5]nonan-2-yl)methyl)-N8-benzyl-3-cyclopropylimidazo[1,2-b]pyridazine-6,8-diamine], the IC50 against CDK7/CycH/MAT1 lay in the range of 100 to 1000 nM.
